Laboratory results reported in US20130030055A1, “COMPOSITIONS AND METHODS FOR TREATING HAIR LOSS, HAIR THINNING, AND HAIR COLOR LOSS” (priority 2010, published 2013).

How the values were obtained:
Type in all cases: in vivo, human
eyelashes [1] = assay: Randomized vehicle-controlled study: overall eyelash prominence by GEA scale; details: week 16; ITT; 0.03% solution once daily to upper eyelid margins (107/137); p<0.0001 vs vehicle
Experimental: The objective of this study was to evaluate the safety and efficacy of bimatoprost 0.03% solution once daily compared with vehicle in increasing overall eyelash prominence following dermal administration to the upper eyelid margins.
During the screening visit, each subject was assessed for inclusion/exclusion criteria. Qualifying subjects were randomly allocated in a 1:1 ratio to treatment with bimatoprost 0.03% solution or vehicle, to be applied to both upper eyelid margins once daily in the evening for 4 months.
Subjects applied study medication to the upper eyelid margins using the supplied, disposable, single-use-per-eye applicator once daily in the evening for 4 months. Subjects were instructed to dab or blot any excess study medication runoff on the area outside the upper eyelash margin with a tissue or other absorbent cloth; the upper lid margin was to feel evenly and lightly moist without runoff. Subjects were instructed not to apply study medication to the lower eyelash line. […]
For the primary efficacy endpoint, a clinical response was defined as at least a 1-grade increase in the GEA score from baseline at month 4 (week 16). […] The proportion of subjects with at least a 1-grade increase from baseline was summarized by a frequency table and analyzed by the Pearson's chi-square test for 2-by-2 tables at each visit. […]

eyelashes [2] = assay: Randomized vehicle-controlled study: digital image analysis of eyelash length, thickness/fullness, darkness; details: week 16; p<0.0001 vs vehicle
Source text: The primary efficacy variable was the change in GEA score from the baseline measurement to the month 4 (week 16) measurement. A clinical success was defined as at least a 1-grade increase from baseline. […] The digital image analysis was based on standardized equipment and subject preparation. Digital image analysis is a photographic process developed and performed by Canfield Scientific, Inc. The details regarding these processes are maintained by Canfield Scientific, Inc. and are available upon request. The information describing software and technical processes of digital image analysis is maintained in standard operating procedures (SOPs) and work instruction manuals on file at Canfield Scientific, Inc. Upper eyelash length was measured within a defined eyelash boundary for each eye, known as the full area of interest (AOI). For the digital image, the computer software divided the full AOI image into a series of 25 vertical pixel segments. Within each segment, the maximum upper eyelash length (defined as the maximum height of each segment) was measured in pixels. The mean number of pixels over all segments represented the upper eyelash length and was computed for each digital image across both eyes. Upper eyelash length was additionally measured in terms of millimeters (mm). […] Upper eyelash thickness/fullness was measured within 3 preset rectangular areas (proximal, medial, and distal, each 300×25 pixels) positioned at fixed distances from a standardized point on the eyelash margin. […] Eyelash thickness/fullness was assessed across both eyes as an average of the 3 rectangular areas (i.e., average progressive eyelash thickness), individually for the 3 areas (proximal, medial, and distal), within the full AOI, and within the spline (a narrow area approximately 5 pixels wide, bisecting the AOI). Upper eyelash thickness/fullness was additionally measured in terms of mm2. […] Upper eyelash darkness was determined by lash intensity of the upper eyelash area within the spline. […] Eyelash intensity was calculated within the full AOI and within the spline. […]

[3] = Randomized vehicle-controlled study: adverse events
Experimental: Safety measurements collected during this study included adverse events, ophthalmic examination variables (iris color, IOP, visual acuity, biomicroscopy, and ophthalmoscopy), physical examination, vital signs, and pregnancy testing.
Safety data (adverse events, ophthalmic examination variables, physical examination, and vital signs variables) were summarized by descriptive statistics and/or frequency tables and were analyzed by appropriate nonparametric statistical methods (Pearson's chi-square test, Wilcoxon rank sum test) and/or parametric tests (ANOVA, t-test). The safety analyses were based on the safety population. No data imputation for missing visits or values was performed.

eyebrows = assay: Eyebrow growth after chemotherapy-induced eyebrow loss (Example 3); details: person, eyebrows lost after chemotherapy
Source text: A person participates in a clinical study for eyebrow growth. The patient has lost both their eyebrows as a result of recent treatments of chemotherapy. Bimatoprost 0.03% is applied along the eyebrow line of both eyes. After approximately 4 weeks, the person begins to experience eyebrow growth. […] The person is extremely satisfied with the results and no longer needs to apply make-up in place of real eyebrows.

For CCNC(=O)CCC/C=C\C[C@@H]1[C@@H](/C=C/[C@@H](O)CCc2ccccc2)[C@H](O)C[C@@H]1O [bimatoprost], the “Subjects with at least a 1-grade increase from baseline in overall eyelash prominence (GEA scale)” value (eyelashes [1]) was 78.1%, the “Mean change from baseline in eyelash darkness, as darker eyelashes” value (eyelashes [2]) was 18% and the “Mean change from baseline in eyelash length, as increase in length” value (eyelashes [2]) was 25%. For the same compound, the “Mean change from baseline in eyelash thickness/fullness, as increase” value (eyelashes [2]) was 106%, the “Subjects reporting conjunctival hyperemia as an adverse event” value ([3]; 5/137, 0.03% solution once daily for 4 months) was 3.6% and the “Overall safety and tolerability” value ([3]; healthy adult subjects) was “safe and well-tolerated”. The “Eyebrow outcome following the study” value (eyebrows) was “full, long eyebrows” and the “Time until eyebrow growth begins” value (eyebrows; applied along eyebrow line of both eyes) was “approximately 4 weeks”.
